US20240270762A1, “PENICILLIN-BINDING PROTEIN INHIBITORS” (priority 2021, published 2024)
Converted amounts (≈) assume the structure as drawn.

Assays:
P. aeruginosa ATCC 35151 = assay: microbe, parasite or virus in culture; format: cell-based; conditions: Pseudomonas aeruginosa, ATCC35151, read-out: Minimum inhibitory concentration, P. aeruginosa ATCC 35151
A. baumannii CDC-0045 = assay: microbe, parasite or virus in culture; format: cell-based; conditions: Acinetobacter baumannii, CDC0045, read-out: MIC, A. baumannii CDC-0045
N. gonorrhoeae WHO K = assay: Liquid broth MIC in Fastidious broth; conditions: Neisseria gonorrhoeae, read-out: Minimum Inhibitory Concentration, WHO K
A. baumannii 1258916 = assay: microbe, parasite or virus in culture; format: cell-based, Acinetobacter baumannii; conditions: Acinetobacter baumannii, 1258916, read-out: MIC, A. baumannii 1258916
[1] = tested on: P. aeruginosa (ΔmexAB-oprM); assay: Broth microdilution MIC in iron-depleted CAMHB (IDM); format: cell-based; conditions: Pseudomonas aeruginosa; iron-depleted CAMHB (IDM); […]; read-out: Minimum inhibitory concentration, P. aeruginosa ΔmexAB-oprM
A. baumannii CDC-0036 = assay: microbe, parasite or virus in culture; format: cell-based; conditions: Acinetobacter baumannii, CDC0036, read-out: MIC, A. baumannii CDC-0036
N. gonorrhoeae WHO L = assay: Liquid broth MIC in Fastidious broth; conditions: Neisseria gonorrhoeae, read-out: Minimum Inhibitory Concentration, WHO L
A. baumannii ATCC 19606 = assay: microbe, parasite or virus in culture; format: cell-based; conditions: Acinetobacter baumannii, ATCC19606, read-out: MIC, A. baumannii ATCC 19606
N. gonorrhoeae WHO Z = assay: Liquid broth MIC in Fastidious broth; conditions: Neisseria gonorrhoeae, read-out: Minimum Inhibitory Concentration, WHO Z
N. gonorrhoeae WHO M = assay: Liquid broth MIC in Fastidious broth; conditions: Neisseria gonorrhoeae, read-out: Minimum Inhibitory Concentration, WHO M
N. gonorrhoeae FA1090 = assay: Liquid broth MIC in Fastidious broth; conditions: Neisseria gonorrhoeae, FA1090, read-out: Minimum Inhibitory Concentration, FA 1090
Description: Additional antibacterial testing of the series was performed in 8 reference strains of N. gonorrhoeae (ATCC 49226, FA1090, MS 11, WHO G, WHO L, WHO M, WHO K, WHO X, WHO Z, WHO Q, CDC-0197). ATCC 49226, FA1090, MS11, WHO G, WHO L, and WHO M produce wild type or wild-type like PBP2. WHO K, WHO X, WHO Z, WHO Q, and CDC-0197 produce mosaic PBP2. Liquid broth-based assays were used for antibacterial testing of PBP inhibitors in Neisseria gonorrhoeae. Briefly, cryo-preserved bacterial cultures of clinical strains were streaked for isolation on Chocolate Agar (72 g/L (2×) GC Agar Base (BD #228950) and 2% (2×) Hemoglobin was autoclaved at 121° C. for 20 minutes to sterilize. Once cooled to ˜50° C. the 2×GC Agar Base and 2× Hemoglobin solutions are combined and 1% IsoVitaleX Enrichment (BD #211876) was added to the solution). Strains were incubated at 36° C. and 5% CO2 to allow growth of colonies, 24 hours before inoculum preparation. 2-fold serial dilutions of test compounds were conducted in a 96 well plate with a final volume of 75 μL per well at 2-fold the final desired concentration in Fastidious broth (Remel #R07664). For preparation of assay inoculum, a direct suspension was prepared by aseptically swabbing 10-15 colonies from agar plates into culture tubes containing 2 mL of fresh sterile saline. After the dilution plates were set up, direct suspensions were then diluted in a cuvette containing sterile saline and the optical density was measured at 600 nm. Inocula were diluted such that 75 μL of this culture in Fastidious broth results in a starting bacterial concentration of 5×10^5 CFU/mL when added to the dilution plates. The plates were incubated for ˜24 hours at 36° C. and 5% CO2.

N. gonorrhoeae MS11 = assay: Liquid broth MIC in Fastidious broth; conditions: Neisseria gonorrhoeae, MS11, read-out: Minimum Inhibitory Concentration, MS11
N. gonorrhoeae WHO Q = assay: Liquid broth MIC in Fastidious broth; conditions: Neisseria gonorrhoeae, read-out: Minimum Inhibitory Concentration, WHO Q

Row | SMILES | MIC (P. aeruginosa ATCC 35151) | MIC (A. baumannii CDC-0045) | MIC (N. gonorrhoeae WHO K) | MIC (A. baumannii 1258916) | MIC [1] | MIC (A. baumannii CDC-0036) | MIC (N. gonorrhoeae WHO L) | MIC (A. baumannii ATCC 19606) | MIC (N. gonorrhoeae WHO Z) | MIC (N. gonorrhoeae WHO M) | MIC (N. gonorrhoeae FA1090) | MIC (N. gonorrhoeae MS11) | MIC (N. gonorrhoeae WHO Q)
1 | O=C(NCCCN1CCN(C(=O)N[C@@H](C(=O)N[C@H]2Cc3ccc(F)c(C(=O)O)c3OB2O)c2cc(F)c(O)c(O)c2Cl)C1=O)c1ccccc1 [Example 253, (R)-3-((R)-2-(3-(3-benzamidopropyl)-2-oxoimidazolidine-1-carboxamido)-2-(2-chloro-5-fluoro-3,4-dihydroxyphenyl)acetamido)-7-fluoro-2-hydroxy-3,4-dihydro-2H-benzo[e][1,2]oxaborinine-8-carboxylic acid] | < 1 µg/mL | < 1 µg/mL | > 64 µg/mL | < 1 µg/mL | < 1 µg/mL | < 1 µg/mL | > 64 µg/mL | < 1 µg/mL | 16 to 32 µg/mL (≈ 22.4 to 44.7 µM) | 4 to 8 µg/mL (≈ 5.59 to 11.2 µM) | 1 to 2 µg/mL (≈ 1.4 to 2.79 µM) | 16 to 32 µg/mL (≈ 22.4 to 44.7 µM) | 16 to 32 µg/mL (≈ 22.4 to 44.7 µM)
2 | O=C(NCCCN1CCN(C(=O)N[C@H](C(=O)N[C@H]2Cc3ccc(F)c(C(=O)O)c3OB2O)c2cc(F)c(O)c(O)c2Cl)C1=O)c1cccc(O)c1 [Example 254, (R)-3-((S)-2-(2-chloro-5-fluoro-3,4-dihydroxyphenyl)-2-(3-(3-(3-hydroxybenzamido)propyl)-2-oxoimidazolidine-1-carboxamido)acetamido)-7-fluoro-2-hydroxy-3,4-dihydro-2H-benzo[e][1,2]oxaborinine-8-carboxylic acid] | < 1 µg/mL | > 128 µg/mL | > 64 µg/mL | > 128 µg/mL | > 128 µg/mL | > 128 µg/mL | > 64 µg/mL | 8 to 16 µg/mL (≈ 10.9 to 21.9 µM) | > 64 µg/mL | > 64 µg/mL | > 64 µg/mL | > 64 µg/mL | > 64 µg/mL
3 | O=C(NCCCN1CCN(C(=O)N[C@@H](C(=O)N[C@H]2Cc3ccc(F)c(C(=O)O)c3OB2O)c2cc(F)c(O)c(O)c2Cl)C1=O)c1cccc(O)c1 [Example 255, (R)-3-((R)-2-(2-chloro-5-fluoro-3,4-dihydroxyphenyl)-2-(3-(3-(3-hydroxybenzamido)propyl)-2-oxoimidazolidine-1-carboxamido)acetamido)-7-fluoro-2-hydroxy-3,4-dihydro-2H-benzo[e][1,2]oxaborinine-8-carboxylic acid] | < 1 µg/mL | < 1 µg/mL | > 64 µg/mL | < 1 µg/mL | < 1 µg/mL | < 1 µg/mL | > 64 µg/mL | < 1 µg/mL | 16 to 32 µg/mL (≈ 21.9 to 43.7 µM) | 4 to 8 µg/mL (≈ 5.47 to 10.9 µM) | 1 to 2 µg/mL (≈ 1.37 to 2.73 µM) | 16 to 32 µg/mL (≈ 21.9 to 43.7 µM) | 16 to 32 µg/mL (≈ 21.9 to 43.7 µM)
4 | O=C(NCCCN1CCN(C(=O)NC(C(=O)N[C@H]2Cc3ccc(F)c(C(=O)O)c3OB2O)c2cc(F)c(O)c(O)c2Cl)C1=O)c1ccncc1 (stereo partly drawn) [Example 256, (3R)-3-(2-(2-chloro-5-fluoro-3,4-dihydroxyphenyl)-2-(3-(3-(isonicotinamido)propyl)-2-oxoimidazolidine-1-carboxamido)acetamido)-7-fluoro-2-hydroxy-3,4-dihydro-2H-benzo[e][1,2]oxaborinine-8-carboxylic acid] | < 1 µg/mL | < 1 µg/mL | > 64 µg/mL | < 1 µg/mL | < 1 µg/mL | 2 to 4 µg/mL (≈ 2.79 to 5.58 µM) | > 64 µg/mL | < 1 µg/mL | 16 to 32 µg/mL (≈ 22.3 to 44.6 µM) | 16 to 32 µg/mL (≈ 22.3 to 44.6 µM) | 4 to 8 µg/mL (≈ 5.58 to 11.2 µM) | > 64 µg/mL | > 64 µg/mL
5 | O=C(NCCCN1CCN(C(=O)NC(C(=O)N[C@H]2Cc3ccc(F)c(C(=O)O)c3OB2O)c2cc(F)c(O)c(O)c2Cl)C1=O)c1nccs1 (stereo partly drawn) [Example 257, (3R)-3-(2-(2-chloro-5-fluoro-3,4-dihydroxyphenyl)-2-(2-oxo-3-(3-(thiazole-2-carboxamido)propyl)imidazolidine-1-carboxamido)acetamido)-7-fluoro-2-hydroxy-3,4-dihydro-2H-benzo[e][1,2]oxaborinine-8-carboxylic acid] | < 1 µg/mL | < 1 µg/mL | > 64 µg/mL | < 1 µg/mL | < 1 µg/mL | 2 to 4 µg/mL (≈ 2.77 to 5.53 µM) | > 64 µg/mL | < 1 µg/mL | 16 to 32 µg/mL (≈ 22.1 to 44.3 µM) | 16 to 32 µg/mL (≈ 22.1 to 44.3 µM) | 4 to 8 µg/mL (≈ 5.53 to 11.1 µM) | 16 to 32 µg/mL (≈ 22.1 to 44.3 µM) | > 64 µg/mL
